According to US20230190887A1, “TARGETING G3BP AGGREGATION TO PREVENT NEURODEGENERATION” (priority 2019, published 2023):
“Also recorded” adds a separate entry of the source.

Experiments:
[1] = system: G3BP1 aggregates in midbrain neurons; experiment: Endogenous G3BP1 aggregates in MPP+-treated midbrain neurons; assay type: cell-based, rat; settings: MPP+ plus peptide
Description: (§1) Given that the G3BP1 190-208 peptide prevents degeneration induced by treatment with neurotoxins such as MPP+ and Aβ oligomer and decreases G3BP1 aggregates formed due MPP+ and Aβ treatment.
(§2) (A) Size of endogenous G3BP1 aggregates per 100 μm of neurite is shown as indicated bins from midbrain cultures under control conditions and after treatment with MPP+alone or with 190-208 G3BP1 or 168-189 peptides. (B) Size distribution of endogenous G3BP1 aggregates per 100 μm of neurite is shown from cortical neurons treated with 1 μM Aβpeptide or with […] 190-208 G3BP1 or 168-189 control peptide. Non-treated neurons were used as a control. […] (N≥90 over 3 cultures; by two-way ANOVA with Tukey HSD post-hoc).

[2] = system: G3BP1 aggregates in cortical neurons; experiment: Endogenous G3BP1 aggregates in Aβ-treated cortical neurons; assay type: cell-based, rat; settings: Aβ oligomers plus peptide
Description: as §1, §2

DRG neurons = experiment: Axon growth in dissociated DRG cultures; assay type: cell-based, rat
Experimental: Cell culture. For primary neuronal cultures, L4-5 DRG were harvested in Hybernate-A medium (BrainBits) and then dissociated as described. After centrifugation and washing in DMEM/F12 (Life Technologies), cells were resuspended in DMEM/F12, 1×N1 supplement (Sigma), 10% fetal bovine serum (Hyclone), and 10 μM cytosine arabinoside (Sigma). Dissociated DRGs were plated immediately on laminin/poly-L-lysine-coated coverslips or transfected (see below) and then plated on coated coverslips.
[…] Neurite outgrowth was assessed 24 h after addition of peptides. For the cortical cultures, 10 μM peptide was applied to the axonal compartment at 3 d in vitro (DIV) and axonal growth was assessed at 6 DIV. For iMotor neurons, 20 μM peptides were immediately added and neurite growth was assessed 24 h later.
For neurite outgrowth, images from 60 h DRG cultures were analyzed for neurite outgrowth using WIS-Neuromath. Axon morphology was visualized using GFP and/or NF immunofluorescence as described. Differentiated hiPSC neuron image acquisition and neurite length quantification was performed using Arrayscan XTI (Thermo Fisher).

[3] = system: axons of E18 cortical neurons; experiment: Aβ oligomer-mediated axon degeneration in microfluidic cultures; assay type: cell-based; settings: axons only exposed: Aβ oligomer 1 μM for 16 hours ± 190-208 G3BP1 peptide 1 μM
Experimental: To test whether the cell permeable G3BP1 190-208 peptide protects against this early axonal degeneration, the current disclosure exposed only the axons of E18 cortical neuron cultures to Aβ peptide using microfluidic cultures (FIG. 16A). […] Thus, the cell permeable G3BP1 190-208 peptide protects axons from the neurotoxic effects of Aβ oligomers through axon intrinsic mechanisms.
E18 cortical neurons were plated into the cell-body compartment (blue); after 7 DIV axons from these neurons extend through the microchannels into the axon compartment (pink). […] Yellow line indicates the exit of the axons from the microchannels.

[4] = system: NMJs of TDPΔNLS MN-muscle co-cultures; experiment: TMRE mitochondrial activity in in vitro NMJs; assay type: cell-based, mouse; settings: 20 μM peptide in NMJ compartment
Experimental: Muscles in co-culture were kept in BA medium for 7 days. To aid NMJ formation, media in all compartments was then replaced to poor neurobasal (PNB) medium, which contained only 1% P/S and 1% Glutamax. Doxycycline was applied to TDP-43ΔNLS cultures only at the proximal MN compartment, in a concentration of 0.1 μg/mL, immediately after plating and throughout the entire experimental timeline. For TDPΔNLS recovery experiments (FIGS. 7-8), Doxycline was […] at the proximal MN compartment after 5 DIV, and the cultures were grown until 11 DIV. For G3BP1 peptide treatment (FIG. 21 at i-j, FIG. 24 at f), 20 μM G3BP1 peptides were added exclusively to the distal compartment, starting after 7 DIV.
Mitochondrial membrane potential was assessed with Tetramethylrhodamine Ethyl, Ester (TMRE; Thermo Fisher) dye. Cultures were incubated with 20 nM TMRE for 30 min in CO2 incubator, then washed 3 times with culture medium. Images of TMRE labeled axons in the distal compartment of MFCs were acquired before and after cultures were treated with Anisomycin (40 μM) or NaAsO2 (250 μM), Cycloheximide (150 μM) in ×60 magnification. […] The intensity of TMRE fluorescence in axonal mitochondria was measured using FIJI, and the fraction of change post/pretreatment was calculated for each image field.

[5] = system: TDPΔNLS MN-muscle co-cultures; experiment: Co-culture contraction analysis; assay type: cell-based, mouse; settings: 20 μM G3BP1 peptides in NMJ compartment
Experimental: Muscles in co-culture were kept in BA medium for 7 days. To aid NMJ formation, media in all compartments was then replaced to poor neurobasal (PNB) medium, which contained only 1% P/S and 1% Glutamax. Doxycycline was applied to TDP-43ΔNLS cultures only at the proximal MN compartment, in a concentration of 0.1 μg/mL, immediately after plating and throughout the entire experimental timeline. For TDPΔNLS recovery experiments (FIGS. 7-8), Doxycline was […] at the proximal MN compartment after 5 DIV, and the cultures were grown until 11 DIV. […] NMJ activity was assessed by quantifying the percent of innervated and contracting myocytes in co-culture as previously described36. Briefly, after 12 days in co-culture, phase-contrast time lapse image series were acquired at a frame rate of 25 frames-per-second (25 FPS) using a X20 air objective. During imaging, cultures were maintained in controlled temperature and CO2 environment. For obtaining contraction time traces, we used the “Time Series Analyzer V3” plugin for FIJI ImageJ V.2.0.0, and marked a region of interest on a small, high contrast and mobile region on the muscle, and then obtained the mean values for each time point.

[6] = listed as 190-208 G3BP1 peptide
[7] = 10 μM Tat-fused peptide added to DRG cultures immediately after plating

For “YGNKKNNNQNNN-VVEPEPEPEPEPEPEPVSE [G3BP1 190-208 peptide]”, the “size of endogenous G3BP1 aggregates per 100 μm of neurite” value (from here on “size … per 100 μm of neurite”) [1] was “decrease in the size of G3BP1 aggregates”, the “size … per 100 μm of neurite” value [1, 6] was “disassembly of G3BP1 granules” and the “size … per 100 μm of neurite” value [2] was “decrease in the size of G3BP1 aggregates”. For the same substance, the “size … per 100 μm of neurite” value [2, 6] was “disassembly of G3BP1 granules”, the axon length (DRG neurons; [7]) was “increased axon length” and the “number of neurites per neuron” value (DRG neurons; [7]) was “increased the number of neurites per neuron”. For the same substance, the axon length (DRG neurons; delayed application (peptide added at 12 h, assessed at 36 h), naive and preinjured DRG neurons) was “significantly increased axon length”, the axon degeneration [3] was “near completely prevented this axon degeneration; also recorded: rescues amyloid beta oligomer-mediated axonal degeneration” and the “pre-synaptic TMRE signal (mitochondria activity) in NMJs” value [4] was “recovered”. The “percent of innervated muscles that contract” value [5] was “reversed”.
